Here are results for nine compounds from PubChem BioAssay (NCI).

Some test systems named below: COLO 205 colon; K-562 leukemia; KM12 colon; LOX IMVI melanoma; M14 melanoma; MALME-3M melanoma; MOLT-4 leukemia; NCI/ADR-RES ovarian; OVCAR-8 ovarian; PC-3 prostate; SF-295 CNS; SK-MEL-28 melanoma; SN12C renal; U251 CNS; UACC-257 melanoma; UACC-62 melanoma; HL-60(TB) leukemia; NCI-H226 lung; A498 renal.
Common to all, as to experiment: growth of human tumour cells (NCI), 48 h

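Values below derive from 48-hour exposures of cells grown in 96-well plates, with endpoints linearly interpolated between the two concentrations bracketing the appropriate inhibition level. TGI: total growth inhibition.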 A value given as a limit tells only on which side of the number the result lay.

In the case of `CC(C)(C)n1c(=O)n2n(c1=O)Cc1cccc3cccc(c13)C2`, the TGI in the assay with COLO 205 colon turned out to be 72.3 µM; in the assay with K-562 leukemia, 35.4 µM; with KM12 colon, 34 µM; with LOX IMVI melanoma, 73.5 µM; in the assay on M14 melanoma it was 34.1 µM; in the assay with MALME-3M melanoma, 31.7 µM. In addition, the TGI in the assay on MOLT-4 leukemia stood at 93.8 µM; in the assay on NCI/ADR-RES ovarian it was 37.1 µM; in the assay on OVCAR-8 ovarian, 69.9 µM; in the assay with PC-3 prostate, 30.5 µM; in the assay with SF-295 CNS it was 54.2 µM; in the assay with SK-MEL-28 melanoma, 58.8 µM. For the same compound, the TGI in the assay with SN12C renal is 46.3 µM; in the assay with U251 CNS, 33.9 µM; with UACC-257 melanoma, 89.6 µM; in the assay with UACC-62 melanoma, 82.5 µM.
With `COc1ccc(N=C2S/C(=N\C(=Nc3ccccc3)SCc3ccccc3)N(c3ccccc3)C2=Nc2ccc(OC)cc2)cc1`, the TGI in the assay on COLO 205 colon, with HL-60(TB) leukemia, with K-562 leukemia, with KM12 colon, in the assay with M14 melanoma and with MALME-3M melanoma was > 100 µM in each case. Further, the TGI in the assay on MOLT-4 leukemia, in the assay with NCI-H226 lung, in the assay on OVCAR-8 ovarian, in the assay on PC-3 prostate, with SK-MEL-28 melanoma and with SN12C renal was > 100 µM throughout. Besides, the TGI in the assay with UACC-257 melanoma and in the assay with UACC-62 melanoma was > 100 µM throughout.
For the compound `COc1cc2nc(Nc3cccc(Br)c3)nc(Nc3cccc(Br)c3)c2cc1OC`, the TGI worked out at 27.7 µM in the assay on COLO 205 colon; 62.2 µM in the assay with K-562 leukemia; 36.7 µM in the assay on KM12 colon; 30.4 µM with LOX IMVI melanoma; 32.3 µM in the assay with M14 melanoma; 34.7 µM in the assay on MALME-3M melanoma. Further, the TGI with MOLT-4 leukemia was found to be 47.2 µM; with NCI/ADR-RES ovarian, 37.5 µM; in the assay on OVCAR-8 ovarian, 31.6 µM; with PC-3 prostate, 41.6 µM; in the assay with SF-295 CNS, 32.7 µM; in the assay on SK-MEL-28 melanoma, 33.5 µM. Moreover, the TGI with SN12C renal came to 31.4 µM; with U251 CNS, 35.7 µM; in the assay with UACC-62 melanoma, 32.8 µM.
Regarding `O=P1(Oc2ccccc2)N=P(c2ccccc2)(c2ccccc2)C=C(c2ccc(Cl)cc2)N1` (stereo unspecified), the TGI stood at 17.1 µM in the assay on COLO 205 colon; 20.5 µM in the assay with HL-60(TB) leukemia; 22.2 µM with K-562 leukemia; 25.1 µM with KM12 colon; 21.1 µM in the assay on M14 melanoma; 29.6 µM in the assay on MALME-3M melanoma. In addition, the TGI in the assay with MOLT-4 leukemia is 22.4 µM; in the assay with NCI/ADR-RES ovarian, 27.9 µM; with OVCAR-8 ovarian, 29.8 µM; with PC-3 prostate it was 20.7 µM; in the assay on SF-295 CNS, 19.8 µM; in the assay on SN12C renal, 32.4 µM. In addition, the TGI in the assay with U251 CNS turned out to be 18.8 µM; in the assay on UACC-257 melanoma, 30.8 µM; in the assay with UACC-62 melanoma, 27.5 µM.
For `Nc1ccc2nc3c(nc2c1)C(=O)c1ccccc1-3`, the TGI in the assay with COLO 205 colon, with HL-60(TB) leukemia, in the assay with K-562 leukemia, in the assay on KM12 colon, with M14 melanoma and in the assay with MALME-3M melanoma was > 100 µM throughout. Besides, the TGI in the assay on MOLT-4 leukemia, in the assay with NCI-H226 lung, in the assay on NCI/ADR-RES ovarian, with OVCAR-8 ovarian, in the assay with PC-3 prostate and in the assay with SF-295 CNS was > 100 µM each time. Also, the TGI in the assay with SK-MEL-28 melanoma, in the assay on SN12C renal, with U251 CNS, with UACC-257 melanoma and with UACC-62 melanoma was > 100 µM in each case.
Take `CC(=O)C1C(=O)C(=O)N(c2ccccc2)C1=O` (stereo unspecified): the TGI with COLO 205 colon, in the assay on HL-60(TB) leukemia, in the assay with KM12 colon, with LOX IMVI melanoma, in the assay with M14 melanoma and in the assay on MOLT-4 leukemia was > 100 µM each time. The TGI in the assay on NCI-H226 lung, in the assay on NCI/ADR-RES ovarian, in the assay on OVCAR-8 ovarian, in the assay on PC-3 prostate, in the assay with SF-295 CNS and in the assay with SK-MEL-28 melanoma was > 100 µM in each case. Also, the TGI in the assay with SN12C renal, in the assay on U251 CNS, with UACC-257 melanoma and in the assay on UACC-62 melanoma was > 100 µM throughout.
For `CC(=O)OCC(C)C1=C(OC(C)=O)C(=O)C2(C)C/C=C(/C)CC/C=C(\C)CCC(OC(C)=O)C(C)CCC12` (stereo unspecified), the TGI in the assay with COLO 205 colon came to 37.8 µM; with HL-60(TB) leukemia, 27.5 µM; in the assay with K-562 leukemia, 33.4 µM; in the assay with KM12 colon, 36.9 µM; in the assay with LOX IMVI melanoma, 35 µM; in the assay with M14 melanoma, 34.2 µM. The TGI was 27.9 µM with MOLT-4 leukemia; 44.9 µM with OVCAR-8 ovarian; 30.2 µM with PC-3 prostate; 31.3 µM in the assay on SF-295 CNS; 33.8 µM with SK-MEL-28 melanoma; 36.5 µM with SN12C renal. Further, the TGI with U251 CNS was 31.3 µM; in the assay on UACC-257 melanoma, 35.8 µM; in the assay with UACC-62 melanoma, 28 µM.
Take `O=C(C=C1SCCS1)/C=C\c1ccc(Cl)cc1`: the TGI in the assay on A498 renal, in the assay with COLO 205 colon, in the assay on HL-60(TB) leukemia, in the assay with K-562 leukemia, in the assay on KM12 colon and with LOX IMVI melanoma was > 100 µM each time. The TGI with M14 melanoma, with MALME-3M melanoma, in the assay on MOLT-4 leukemia, with NCI-H226 lung, in the assay with OVCAR-8 ovarian and with SF-295 CNS was > 100 µM in each case. Also, the TGI in the assay on SK-MEL-28 melanoma, in the assay with SN12C renal, in the assay with UACC-257 melanoma and in the assay on UACC-62 melanoma was > 100 µM in each case.
As to `COc1cc(/C=C2/SC(c3ccccc3)N(Cc3ccccc3)C2=O)cc(OC)c1OC` (stereo unspecified), the TGI was > 100 µM with A498 renal; 45.9 µM in the assay with COLO 205 colon; > 100 µM with K-562 leukemia; > 100 µM in the assay on KM12 colon; > 100 µM in the assay with LOX IMVI melanoma; > 100 µM in the assay on M14 melanoma. The TGI with MALME-3M melanoma was > 100 µM; in the assay with MOLT-4 leukemia, 63.2 µM; with NCI-H226 lung, > 100 µM; in the assay on NCI/ADR-RES ovarian, > 100 µM; in the assay on OVCAR-8 ovarian, > 100 µM; in the assay with SF-295 CNS, > 100 µM. The TGI in the assay on SK-MEL-28 melanoma, in the assay with SN12C renal, in the assay on U251 CNS, in the assay with UACC-257 melanoma and with UACC-62 melanoma was > 100 µM each time.
